Measured values published in patent publication US11512053B2, “Arginine methyltransferase inhibitors and uses thereof” (priority 2013, dated 2022).
Counter-ions that a name gives are not always drawn. Like-named read-outs stand apart in the source and are kept apart here.

What was measured:
[1] = molecular target: full-length human PRMT1 isoform 1 (GST-tagged) (Homo sapiens, UniProt Q99873); experiment: PRMT1 Biochemical Assay (3H-SAM Flashplate, peptide substrate)
Summary of the method: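 GST-tagged full-length PRMT1 from baculovirus-infected cells, preincubated 30 min at room temperature with compound in 20 mM Bicine pH 7.6, TCEP, BSG, Tween 20. Reaction started with 3H-SAM plus biotinylated peptide, stopped with 300 uM unlabelled SAM. Streptavidin Flashplate capture and scintillation counting; % inhibition curve-fitted for IC50.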

[2] = system: mono-methyl arginine in RKO cells; experiment: RKO Methylation Assay, In Cell Western (ICW) for detection of mono-methyl arginine and DNA content; assay type: cell-based; conditions: Homo sapiens, RKO, 72 h
Summary of the method: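 RKO cells were treated with compound for 72 hours at 37 °C, methanol-fixed and stained overnight at 4 °C with anti-mono-methyl arginine (1:200), with DRAQ5 for DNA. Odyssey 800/700 nm intensity ratio was normalized to DMSO and 20 μM reference-compound controls. EC30 from triplicate nine-point curves.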

[3] = single experiment or average of multiple experiments
[4] = RKO cells, 72 hours compound incubation, mono-methyl arginine signal normalised to DNA content (DRAQ5), percent activation vs 20 μM reference compound, read-out: In Cell Western EC30
[5] = RKO cells, 72 hours incubation, mono-methyl arginine signal normalised to DNA content, single experiment or average of multiple experiments, read-out: In Cell Western EC30

full-length human PRMT1 isoform 1 (GST-tagged), sequence (Q99873 with tags, fused parts or gaps): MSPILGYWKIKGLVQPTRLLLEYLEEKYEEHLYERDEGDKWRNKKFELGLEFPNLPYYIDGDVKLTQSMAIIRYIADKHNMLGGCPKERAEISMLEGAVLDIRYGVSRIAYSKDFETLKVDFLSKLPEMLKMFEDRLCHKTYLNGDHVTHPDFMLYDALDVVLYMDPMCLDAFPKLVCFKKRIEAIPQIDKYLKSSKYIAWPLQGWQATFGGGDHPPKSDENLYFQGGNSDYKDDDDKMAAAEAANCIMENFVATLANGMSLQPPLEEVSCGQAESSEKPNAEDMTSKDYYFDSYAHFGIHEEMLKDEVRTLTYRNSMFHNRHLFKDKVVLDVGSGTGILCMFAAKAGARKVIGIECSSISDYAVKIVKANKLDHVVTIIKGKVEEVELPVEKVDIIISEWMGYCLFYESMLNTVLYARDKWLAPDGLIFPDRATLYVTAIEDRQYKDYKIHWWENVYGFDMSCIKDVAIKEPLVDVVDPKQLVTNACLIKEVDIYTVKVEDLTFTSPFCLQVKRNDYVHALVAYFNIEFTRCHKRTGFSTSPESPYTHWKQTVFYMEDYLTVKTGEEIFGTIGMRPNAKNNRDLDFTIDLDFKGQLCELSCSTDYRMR

CNCCN(C)Cc1c[nH]nc1C1CCC(=O)CC1 [Compound 194]
IC50 [1]: < 100 nM
IC50 [1, 3]: 14.5 nM
EC30 [2, 4]: < 3000 nM
EC30 [2, 5]: 1180 nM

CNCCN(C)Cc1c[nH]nc1[C@H]1CC[C@H](N(CCOc2ccccc2)C(=O)CCOC)CC1 [Compound 219]
IC50 [1]: < 100 nM
IC50 [1, 3]: 8.96 nM
EC30 [2, 4]: < 3000 nM
EC30 [2, 5]: 294 nM

CNCCN(C)Cc1c[nH]nc1C1CCC(C)(C)[C@H](C(=O)NCC(C)C)C1 (some centres unmarked) [Compound 262]
IC50 [1]: < 100 nM
IC50 [1, 3]: 33.7 nM
EC30 [2, 4]: < 3000 nM
EC30 [2, 5]: 289 nM

CNCCN(C)Cc1c[nH]nc1[C@H]1CC[C@@H](N(CCCOC)C(=O)CCOc2ccccc2)CC1 [Compound 246]
IC50 [1]: < 100 nM
IC50 [1, 3]: 12.6 nM
EC30 [2, 4]: < 3000 nM
EC30 [2, 5]: 79.9 nM

CNCCN(C)Cc1c[nH]nc1[C@H]1CC[C@H](N(CCOC)C(=O)CC(C)C)CC1 [Compound 252]
IC50 [1]: < 100 nM
IC50 [1, 3]: 30.9 nM
EC30 [2, 4]: < 3000 nM
EC30 [2, 5]: 267 nM

CCN(C(=O)CCOc1ccccc1)[C@H]1CC[C@H](c2n[nH]cc2CN(C)CCNC)CC1 [Compound 225]
IC50 [1]: < 100 nM
IC50 [1, 3]: 7.62 nM
EC30 [2, 4]: < 3000 nM
EC30 [2, 5]: 649 nM

CNCCN(C)Cc1c[nH]nc1[C@H]1CC[C@H](N(CC(C)C)C(=O)CCOC)CC1 [Compound 234]
IC50 [1]: < 100 nM
IC50 [1, 3]: 16.1 nM
EC30 [2, 4]: < 3000 nM
EC30 [2, 5]: 1060 nM

CCOCC1CC(c2n[nH]cc2CN(C)CCNC)CCC1(C)C (centres unmarked) [Compound 202]
IC50 [1]: < 100 nM
IC50 [1, 3]: 12.7 nM
EC30 [2, 4]: < 3000 nM
EC30 [2, 5]: 327 nM

CNCCN(C)Cc1c[nH]nc1[C@H]1CC[C@H](N(CC(C)C)C(=O)CCOc2ccccc2)CC1 [Compound 232]
IC50 [1]: < 100 nM
IC50 [1, 3]: 9.11 nM
EC30 [2, 4]: < 3000 nM
EC30 [2, 5]: 957 nM

CNCCN(C)Cc1c[nH]nc1[C@H]1CC[C@H](N(CCCOC)C(=O)CC(C)C)CC1 [Compound 241]
IC50 [1]: < 100 nM
IC50 [1, 3]: 22.4 nM
EC30 [2, 4]: < 3000 nM
EC30 [2, 5]: 1180 nM

CNCCN(C)Cc1c[nH]nc1[C@H]1CC[C@@H](N(CCOC)C(=O)CCC(C)C)CC1 [Compound 261]
IC50 [1]: < 100 nM
IC50 [1, 3]: 13 nM
EC30 [2, 4]: < 3000 nM
EC30 [2, 5]: 289 nM

CN(CCN)Cc1c[nH]nc1[C@H]1CC[C@@]2(CC1)CC(C)(C)CO2 [Compound 207]
IC50 [1]: < 100 nM
EC30 [2, 4]: < 3000 nM
EC30 [2, 5]: 12.1 nM

CNCCN(C)Cc1c[nH]nc1[C@H]1CC[C@@H](C(=O)N(C)CCC(C)C)CC1 [Compound 210]
IC50 [1]: < 100 nM
IC50 [1, 3]: 13.1 nM
EC30 [2, 4]: < 3000 nM
EC30 [2, 5]: 280 nM

CNCCN(C)Cc1c[nH]nc1C1CCC(=O)N(CCCOC)C1 (centres unmarked) [Compound 190]
IC50 [1]: 101 to 1000 nM
IC50 [1, 3]: 124 nM
EC30 [2, 4]: 3010 to 12000 nM
EC30 [2, 5]: 6620 nM

CNCCN(C)Cc1c[nH]nc1[C@H]1CC[C@H](O)CC1 [Compound 227, 4-[4-([methyl[2-(methylamino)ethyl]amino]methyl)-1H-pyrazol-3-yl]cyclohexan-1-ol trifluoroacetate]
IC50 [1]: < 100 nM
IC50 [1, 3]: 16.8 nM
EC30 ([2]; read-out: In Cell Western EC30, RKO cells, 72 hours compound incubation, mono-methyl arginine signal normalised to DNA content (DRAQ5), percent activation vs 20 μM reference compound): < 3000 nM
EC30 ([2]; read-out: In Cell Western EC30, RKO cells, 72 hours incubation, mono-methyl arginine signal normalised to DNA content, single experiment or average of multiple experiments): 1530 nM

CNCCN(C)Cc1c[nH]nc1[C@H]1CC[C@]2(CCN(Cc3cc(F)cc(F)c3)C2=O)CC1 [Compound 197]
IC50 [1]: < 100 nM
IC50 [1, 3]: 8.27 nM
EC30 [2, 4]: < 3000 nM
EC30 [2, 5]: 406 nM

CNCCN(C)Cc1c[nH]nc1C1CCC(=O)N(Cc2ccc(C(F)(F)F)cc2)C1 (centres unmarked) [Compound 191]
IC50 [1]: < 100 nM
IC50 [1, 3]: 50.4 nM
EC30 [2, 4]: 3010 to 12000 nM
EC30 [2, 5]: 9250 nM

CCN(C(=O)CC1CCOCC1)[C@H]1CC[C@H](c2n[nH]cc2CN(C)CCNC)CC1 [Compound 195]
IC50 [1]: < 100 nM
IC50 [1, 3]: 14.4 nM
EC30 [2, 4]: 3010 to 12000 nM
EC30 [2, 5]: 4890 nM

CNCCN(C)Cc1c[nH]nc1[C@H]1CC[C@@H](C(=O)NCCC(C)C)CC1 [Compound 204]
IC50 [1]: < 100 nM
IC50 [1, 3]: 18.4 nM
EC30 [2, 4]: < 3000 nM
EC30 [2, 5]: 1550 nM

CNCCN(C)Cc1c[nH]nc1[C@H]1CC[C@H](C(=O)N(C)CCOc2ccccc2)CC1 [Compound 258]
IC50 [1]: < 100 nM
IC50 [1, 3]: 7.59 nM
EC30 [2, 4]: < 3000 nM
EC30 [2, 5]: 303 nM

CNCCN(C)Cc1c[nH]nc1[C@H]1CC[C@H](N(CCOc2ccccc2)C(=O)CCCOC)CC1 [Compound 229]
IC50 [1]: < 100 nM
IC50 [1, 3]: 10.8 nM
EC30 [2, 4]: < 3000 nM
EC30 [2, 5]: 689 nM

CNCCN(C)Cc1c[nH]nc1[C@H]1CC[C@@]2(CCC(C)(C)O2)CC1 [Compound 260]
IC50 [1]: < 100 nM
IC50 [1, 3]: 20.2 nM
EC30 [2, 4]: < 3000 nM
EC30 [2, 5]: 207 nM

CNCCN(C)Cc1c[nH]nc1[C@H]1CC[C@H](C(=O)N(C)CC(C)C)CC1 [Compound 226]
IC50 [1]: < 100 nM
IC50 [1, 3]: 33.1 nM
EC30 [2, 4]: < 3000 nM
EC30 [2, 5]: 1530 nM

CNCCN(C)Cc1c[nH]nc1[C@H]1CC[C@@H](C(=O)N(CCCOC)CCC(C)C)CC1 [Compound 214]
IC50 [1]: < 100 nM
IC50 [1, 3]: 19.8 nM
EC30 [2, 4]: < 3000 nM
EC30 [2, 5]: 95.8 nM

CCC(=O)N(CCOc1ccccc1)[C@H]1CC[C@H](c2n[nH]cc2CN(C)CCNC)CC1 [Compound 221]
IC50 [1]: < 100 nM
IC50 [1, 3]: 6.44 nM
EC30 [2, 4]: < 3000 nM
EC30 [2, 5]: 490 nM

CNCCN(C)Cc1c[nH]nc1[C@H]1CC[C@]2(CCCO2)OC1 [Compound 198]
IC50 [1]: 3010 to 10000 nM
IC50 [1, 3]: ≥ 10000 nM
EC30 [2, 4]: < 3000 nM
EC30 [2, 5]: 406 nM

CN(CCN)Cc1c[nH]nc1[C@H]1CC[C@]2(CC1)CC(C)(C)CO2 [Compound 208]
IC50 [1]: < 100 nM
IC50 [1, 3]: 6.94 nM
EC30 [2, 4]: < 3000 nM
EC30 [2, 5]: 67.2 nM

CNCCN(C)Cc1c[nH]nc1[C@H]1CC[C@@H](N(CCCOC)C(=O)CCC(C)C)CC1 [Compound 244]
IC50 [1]: < 100 nM
IC50 [1, 3]: 39.8 nM
EC30 [2, 4]: < 3000 nM
EC30 [2, 5]: 2530 nM

CNCCN(C)Cc1c[nH]nc1[C@H]1CC[C@]2(CCOC2(C)C)CC1 [Compound 253]
IC50 [1]: < 100 nM
IC50 [1, 3]: 7.15 nM
EC30 [2, 4]: < 3000 nM
EC30 [2, 5]: 56.6 nM

CNCCN(C)Cc1c[nH]nc1[C@H]1CC[C@@H](N(CCC(C)C)C(=O)CCOC)CC1 [Compound 235]
IC50 [1]: < 100 nM
IC50 [1, 3]: 25.7 nM
EC30 [2, 4]: < 3000 nM
EC30 [2, 5]: 813 nM

CNCCN(C)Cc1c[nH]nc1[C@H]1CC[C@@H](N(CC(C)C)C(=O)CCOc2ccccc2)CC1 [Compound 231]
IC50 [1]: < 100 nM
IC50 [1, 3]: 6.49 nM
EC30 [2, 4]: < 3000 nM
EC30 [2, 5]: 96.7 nM

CNCCN(C)Cc1c[nH]nc1[C@H]1CC[C@@H](C(=O)N(C)CCOc2ccccc2)CC1 [Compound 259]
IC50 [1]: < 100 nM
IC50 [1, 3]: 15.8 nM
EC30 [2, 4]: < 3000 nM
EC30 [2, 5]: 408 nM

CNCCN(C)Cc1c[nH]nc1[C@H]1CC[C@H](C(=O)N(CCCOC)CCC(C)C)CC1 [Compound 213]
IC50 [1]: < 100 nM
IC50 [1, 3]: 53.9 nM
EC30 [2, 4]: < 3000 nM
EC30 [2, 5]: 433 nM

CNCCN(C)Cc1c[nH]nc1[C@H]1CC[C@H](C(=O)N(C)CCC(C)C)CC1 [Compound 209]
IC50 [1]: < 100 nM
IC50 [1, 3]: 27.8 nM
EC30 [2, 4]: < 3000 nM
EC30 [2, 5]: 916 nM

CNCCN(C)Cc1c[nH]nc1[C@H]1CC[C@@H](C(=O)NCCOc2ccccc2)CC1 [Compound 212]
IC50 [1]: < 100 nM
IC50 [1, 3]: 5.57 nM
EC30 [2, 4]: < 3000 nM
EC30 [2, 5]: 433 nM

CNCCN(C)Cc1c[nH]nc1C1CCC(C)(C)[C@@H](C(=O)OC)C1 (some centres unmarked) [Compound 255]
IC50 [1]: < 100 nM
IC50 [1, 3]: 10.2 nM
EC30 [2, 4]: < 3000 nM
EC30 [2, 5]: 214 nM

CNCCN(C)Cc1c[nH]nc1[C@H]1CC[C@H](N(CCOC)C(=O)CCOc2ccccc2)CC1 [Compound 230]
IC50 [1]: < 100 nM
IC50 [1, 3]: 13.5 nM
EC30 [2, 4]: < 3000 nM
EC30 [2, 5]: 1320 nM

CNCCN(C)Cc1c[nH]nc1[C@H]1CC[C@H](N(CCOC)C(=O)CCC(C)C)CC1 [Compound 254]
IC50 [1]: < 100 nM
IC50 [1, 3]: 17.3 nM
EC30 [2, 4]: < 3000 nM
EC30 [2, 5]: 1340 nM

CNCCN(C)Cc1c[nH]nc1[C@H]1CC[C@H](N(CCC(C)C)C(=O)CCOC)CC1 [Compound 236]
IC50 [1]: < 100 nM
IC50 [1, 3]: 29 nM
EC30 [2, 4]: < 3000 nM
EC30 [2, 5]: 813 nM
